{"source": "patent US20060052356A1", "about": "“Pharmacological methods to modulate oxygen consumption” (priority 2004, published 2006)", "key": {"Sprague Dawley rats": {"tested_on": "Sprague Dawley rats", "test": "Toxicity and mortality in anesthetized rats given protein synthesis inhibitors (Example 3)"}, "protein synthesis": {"tested_on": "protein synthesis", "test": "35S-methionine incorporation into tissue protein after i.v. protein synthesis inhibitor in anesthetized rats (Example 3)", "type": "in vivo, Sprague Dawley rats"}}}
{"smiles": "C[C@H]1c2cccc(O)c2C(=O)C2=C(O)[C@]3(O)C(=O)C(C(N)=O)=C(O)[C@@H](N(C)C)[C@@H]3[C@@H](O)[C@@H]21", "note": "[Doxycycline]", "values": [{"measurement": "mortality", "setting": "Sprague Dawley rats; at doses <1/3 of LD50", "result": "~66", "unit": "%"}]}
{"smiles": "O=c1c(-c2ccc(O)cc2)coc2cc(O)cc(O)c12", "note": "[Genistein]", "values": [{"measurement": "toxicity", "setting": "Sprague Dawley rats; rat, in vivo", "result": "toxicity at low doses"}, {"measurement": "inhibition of protein synthesis (in words)", "setting": "protein synthesis; single agents, intravenous", "result": "poor inhibitor"}]}
{"smiles": "COc1ccc(C[C@H]2NC[C@H](O)[C@H]2OC(C)=O)cc1", "note": "[anisomycin]", "values": [{"measurement": "inhibition of protein synthesis (in words)", "setting": "protein synthesis; rat, in vivo, iv", "result": "substantial inhibition"}]}
{"smiles": "COc1ccc(C[C@H](N)C(=O)N[C@H]2[C@@H](O)[C@H](n3cnc4c(N(C)C)ncnc43)O[C@@H]2CO)cc1", "note": "[puromycin]", "values": [{"measurement": "inhibition of protein synthesis (in words)", "setting": "protein synthesis; single agents, intravenous", "result": "substantial inhibition"}]}
